As a reminder, the EC50 is the concentration at which the effect is half-maximal. As usually defined, the IC50 is the concentration that gives 50% inhibition. Low values mean inhibition by little substance, high ones a need for much substance.

In assay [1] the test system is T. brucei brucei (MiTat 1.2, strain 427, variant 221). The assay is described as follows: In vitro inhibition of blood stream form trypanosomes, acid phosphatase detection of survivors. The format is cell-based. As to conditions: Trypanosoma brucei, read-out: Trypanosome EC50. As to the method:
Camptothecin compounds were tested against blood stream form trypanosomes in vitro. T. brucei brucei (MiTat 1.2, strain 427, variant 221) were cultured at 37° C. according to the methods of Carruthers and Cross (Carruthers, V. B., and Cross, G. A. M. (1992) Proc. Natl. Acad. Sci. USA., 89:8818-8821) with the substitution of phenol red-free Iscoves Modified Dulbecco's Medium (Mediatech, Inc.) in the HMI-9 culture medium. […] Exponentially growing trypanosomes were diluted to 10^5 cells/ml with prewarmed medium.
The plate was incubated at 37° C. for 24 h in a humidified incubator maintained with 5% CO2.
Surviving trypanosomes were detected by the acid phosphatase method (Martin, A. and Clynes, M. (1991) In Vitro Cell. Dev. Biol. 27A:183-184). p-Nitrophenol phosphate (20 μl of 20 mg/ml; solubilized in 1 M sodium acetate, pH 5.5; 1% Triton X-100) was added to each 200 μl sample and mixed. The plate was then incubated for 3-4 h at 37° C. The production of p-nitrophenol was measured at 405 nm on a microplate reader (UVmax kinetic microplate reader, Molecular Devices). Quadruplicate values were averaged and blanks (complete reaction mixture without trypanosomes) were subtracted for each drug concentration.

The target in assay [2] is T1, topoisomerase I (Homo sapiens, UniProt P11387).
T1 sequence (P11387 1-765): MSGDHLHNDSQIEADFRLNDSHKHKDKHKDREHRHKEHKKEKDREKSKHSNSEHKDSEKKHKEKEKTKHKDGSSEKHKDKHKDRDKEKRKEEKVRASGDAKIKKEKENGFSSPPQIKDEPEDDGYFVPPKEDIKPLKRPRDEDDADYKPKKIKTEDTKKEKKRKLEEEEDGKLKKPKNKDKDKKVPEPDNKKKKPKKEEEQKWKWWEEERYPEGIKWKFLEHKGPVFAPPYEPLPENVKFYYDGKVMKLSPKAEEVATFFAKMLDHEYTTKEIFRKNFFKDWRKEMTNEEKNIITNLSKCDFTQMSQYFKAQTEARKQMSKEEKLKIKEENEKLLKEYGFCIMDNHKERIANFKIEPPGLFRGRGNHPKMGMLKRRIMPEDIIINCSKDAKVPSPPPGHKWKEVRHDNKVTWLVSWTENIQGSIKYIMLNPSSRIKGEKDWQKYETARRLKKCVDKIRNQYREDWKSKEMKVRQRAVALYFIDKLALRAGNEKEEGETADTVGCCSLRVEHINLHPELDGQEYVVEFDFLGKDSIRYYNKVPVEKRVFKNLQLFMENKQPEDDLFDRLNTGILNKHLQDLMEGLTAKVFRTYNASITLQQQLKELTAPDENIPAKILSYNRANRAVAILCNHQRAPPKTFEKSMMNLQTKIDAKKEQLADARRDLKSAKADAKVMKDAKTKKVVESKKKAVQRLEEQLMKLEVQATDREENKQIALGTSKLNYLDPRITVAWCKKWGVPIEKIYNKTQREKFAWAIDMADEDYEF
As to the kind of experiment: Topoisomerase I inhibition relative to 20(S)-camptothecin (separate independent experiments). The format is biochemical. To be noted: T1 relative to 20(S)CPT.

For assay [3], the target named is T2, topoisomerase I (Bos taurus, UniProt F1MN93).
T2 sequence (F1MN93 1-767): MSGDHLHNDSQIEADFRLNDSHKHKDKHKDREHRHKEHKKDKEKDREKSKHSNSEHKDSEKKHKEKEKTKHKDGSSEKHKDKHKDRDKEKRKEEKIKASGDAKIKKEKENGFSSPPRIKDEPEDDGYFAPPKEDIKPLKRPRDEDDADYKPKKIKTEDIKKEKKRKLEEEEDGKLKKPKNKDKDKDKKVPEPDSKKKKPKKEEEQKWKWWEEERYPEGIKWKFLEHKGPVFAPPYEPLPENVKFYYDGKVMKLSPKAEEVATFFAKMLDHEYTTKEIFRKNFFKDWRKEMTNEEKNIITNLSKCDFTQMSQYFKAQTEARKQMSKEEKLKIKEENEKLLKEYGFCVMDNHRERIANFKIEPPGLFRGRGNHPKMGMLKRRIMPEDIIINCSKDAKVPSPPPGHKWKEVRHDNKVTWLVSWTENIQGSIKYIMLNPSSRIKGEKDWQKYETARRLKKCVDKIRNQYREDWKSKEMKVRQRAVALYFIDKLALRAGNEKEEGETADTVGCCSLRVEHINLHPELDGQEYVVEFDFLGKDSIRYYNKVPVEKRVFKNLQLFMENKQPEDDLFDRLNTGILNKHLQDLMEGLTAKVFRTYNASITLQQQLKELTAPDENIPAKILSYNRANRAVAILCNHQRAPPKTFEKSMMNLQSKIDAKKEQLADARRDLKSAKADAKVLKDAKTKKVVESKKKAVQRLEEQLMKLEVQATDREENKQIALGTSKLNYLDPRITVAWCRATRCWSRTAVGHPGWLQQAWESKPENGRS
The assay is described as follows: Topoisomerase I inhibition by the cleavable complex assay of Hsiang et al. It counts as biochemical. As to conditions: for T-1 Inhibition IC50: cleavable complex assay of Hsiang et al.

Where [4] appears, read: blood stream form T. brucei, 24 h at 37° C., acid phosphatase method.

Like-named read-outs stand apart in the source and are kept apart here.

As to `CCC1(OC(=O)CN)C(=O)OCc2c1cc1n(c2=O)Cc2cc3cc4c(cc3nc2-1)OCO4` (racemic) [10,11-MD-20-Glycinate-20(RS)-CPT], the EC50 in assay [1] (setting [4]) was determined as 920 nM.

In the case of `CCc1c2c(nc3cccc(N)c13)-c1cc3c(c(=O)n1C2)COC(=O)[C@]3(O)CC` [7-Ethyl-9-amino-20(S)-CPT, 7-ethyl-9-amino-20(S)-camptothecin], the “Relative Potency T-1 Inhibition” value on topoisomerase I [2] turned out to be 5. Further, in assay [1] (24 h), the concentration giving a half-maximal response (EC50) was 910 nM.

Regarding `CCc1c2c(nc3cccc([N+](=O)[O-])c13)-c1cc3c(c(=O)n1C2)COC(=O)[C@]3(O)CC` [7-Ethyl-9-nitro-20(S)-CPT, 7-ethyl-9-nitro-20(S)-camptothecin], the “Relative Potency T-1 Inhibition” value at topoisomerase I [2] stood at 4. In assay [1] (24 h), the concentration giving a half-maximal response (EC50) was 2670 nM.

With `CCc1c2c(nc3cc4c(cc13)OCO4)-c1cc3c(c(=O)n1C2)COC(=O)[C@]3(O)CC` [7-Ethyl-10,11-methylenedioxy-20(S)-CPT, 7-ethyl-10,11-methylenedioxy-20(S)-camptothecin], on topoisomerase I [2], the “Relative Potency T-1 Inhibition” value amounted to 12. In addition, the EC50 in assay [1] (24 h) worked out at 60 nM.

For the compound `CCc1c2c(nc3ccc(N)cc13)-c1cc3c(c(=O)n1C2)COC(=O)[C@]3(O)CC` [7-Ethyl-10-amino-20(S)-CPT, 7-ethyl-10-amino-20(S)-camptothecin], the “Relative Potency T-1 Inhibition” value on topoisomerase I [2] is listed as 5. Also, in assay [1] (24 h), the EC50 was 620 nM.

For the compound `CCc1c2c(nc3ccc([N+](=O)[O-])cc13)-c1cc3c(c(=O)n1C2)COC(=O)[C@]3(O)CC` [7-Ethyl-10-nitro-20(S)-CPT, 7-ethyl-10-nitro-20(S)-camptothecin], the “Relative Potency T-1 Inhibition” value on topoisomerase I [2] stood at 4. Also, the EC50 in assay [1] (24 h) was determined as 600 nM.

Turning to `CCc1c2c(nc3ccccc13)-c1cc3c(c(=O)n1C2)COC(=O)[C@]3(O)CC` [7-Ethyl-20(S)-CPT, 7-ethyl-20(S)-camptothecin], the “Relative Potency T-1 Inhibition” value on topoisomerase I [2] worked out at 3. In assay [1] (24 h), the EC50 worked out at 770 nM.

Take `CC[C@@]1(O)C(=O)OCc2c1cc1n(c2=O)Cc2c-1nc1cc3c(cc1c2C)OCO3` [7-Methyl-10,11-methylenedioxy-20(S)-CPT, 7-methyl-10,11-methylenedioxy-20(S)-camptothecin]: the “Relative Potency T-1 Inhibition” value on topoisomerase I [2] is 5. For the same compound, the EC50 in assay [1] (24 h) worked out at 40 nM.

As to `CCCc1c2c(nc3ccccc13)-c1cc3c(c(=O)n1C2)COC(=O)[C@]3(O)CC` [7-Propyl-20(S)-CPT, 7-propyl-20(S)-camptothecin], the “Relative Potency T-1 Inhibition” value on topoisomerase I [2] stood at 2. Also, in assay [1] (24 h), the EC50 is 770 nM.

With `CCc1c2c(nc3cc4c(c(N)c13)OCO4)-c1cc3c(c(=O)n1C2)COC(=O)[C@]3(O)CC` [7-ethyl-9-amino-10,11-methylenedioxy-20(S)-camptothecin], the “Relative Potency T-1 Inhibition” value on topoisomerase I [2] was determined as 10. For the same compound, in assay [1] (24 h), the EC50 amounted to 60 nM.

In the case of `CCc1c2c(nc3cc4c(c([N+](=O)[O-])c13)OCO4)-c1cc3c(c(=O)n1C2)COC(=O)[C@]3(O)CC` [7-ethyl-9-nitro-10,11-methylenedioxy-20(S)-camptothecin], the “Relative Potency T-1 Inhibition” value at topoisomerase I [2] turned out to be 5. Also, the concentration giving a half-maximal response (EC50) in assay [1] (24 h) came out at 210 nM.

Regarding `CC[C@@]1(O)C(=O)OCc2c1cc1n(c2=O)Cc2cc3c(N)c4c(cc3nc2-1)OCO4` [9-Amino-10,11-MD-20(S)-CPT, 9-amino-10,11-methylenedioxy-20(S)-camptothecin], the IC50 at topoisomerase I [3] was 50 nM. Moreover, the EC50 in assay [1] (24 h) came out at 180 nM.

Take `CC[C@@]1(O)C(=O)OCc2c1cc1n(c2=O)Cc2cc3c(N)cccc3nc2-1` [9-Amino-20(S)-CPT, 9-amino-20(S)-camptothecin]: the “Relative Potency T-1 Inhibition” value at topoisomerase I [2] stood at 2. Moreover, the 50% effective concentration (EC50) in assay [1] (setting [4]) is 870 nM.

For `CC[C@@]1(O)C(=O)OCc2c1cc1n(c2=O)Cc2cc3c(Cl)cccc3nc2-1` [9-Chloro-20(S)-CPT, 9-chloro-20(S)-camptothecin], the IC50 against topoisomerase I [3] came out at 90 nM. Besides, the EC50 in assay [1] (24 h) was found to be 890 nM.

Consider `CC[C@@]1(O)C(=O)OCc2c1cc1n(c2=O)Cc2cc3c([N+](=O)[O-])c4c(cc3nc2-1)OCO4` [9-Nitro-10,11-methylenedioxy-20(S)-CPT], for which, at topoisomerase I [2], the “Relative Potency T-1 Inhibition” value was 3. Besides, the 50% effective concentration (EC50) in assay [1] (24 h) is 400 nM.

With `CC[C@@]1(O)C(=O)OCc2c1cc1n(c2=O)Cc2cc3c([N+](=O)[O-])cccc3nc2-1` [9-Nitro-20(S)-CPT], the EC50 in assay [1] (setting [4]) worked out at 1640 nM.

As for `CC[C@@]1(O)C(=O)OCc2c1cc1n(c2=O)Cc2cc3cc4c(cc3nc2-1)OCO4` [10,11-MD-20(S)-CPT, 10,11-methylenedioxy-20(S)-camptothecin], the midpoint of inhibition against topoisomerase I [3], the IC50, lay at 30 nM. The “Relative Potency T-1 Inhibition” value at topoisomerase I [2] is on record as 10. For the same compound, the EC50 in assay [1] (24 h) is 210 nM.

Regarding `CC[C@@]1(O)C(=O)OCc2c1cc1n(c2=O)Cc2cc3cc(N)ccc3nc2-1` [10-Amino-20(S)-CPT, 10-amino-20(S)-camptothecin], the “Relative Potency T-1 Inhibition” value at topoisomerase I [2] was 2. Besides, in assay [1] (24 h), the EC50 is 1200 nM.

On to `CC[C@@]1(O)C(=O)OCc2c1cc1n(c2=O)Cc2cc3cc(Cl)ccc3nc2-1` [10-Chloro-20(S)-CPT, 10-chloro-20(S)-camptothecin], for which the EC50 in assay [1] (24 h) came to 1770 nM.

Turning to `CC[C@@]1(O)C(=O)OCc2c1cc1n(c2=O)Cc2cc3cc(C)ccc3nc2-1` [10-Methyl-20(S)-CPT], the EC50 in assay [1] (24 h) turned out to be 3140 nM.

`CC[C@@]1(O)C(=O)OCc2c1cc1n(c2=O)Cc2cc3cc([N+](=O)[O-])ccc3nc2-1` [10-Nitro-20(S)-CPT]: the EC50 in assay [1] (24 h) turned out to be 1750 nM.

Take `CC[C@@]1(O)C(=O)OCc2c1cc1n(c2=O)Cc2cc3ccc(N)cc3nc2-1` [11-Amino-20(S)-CPT]: on topoisomerase I [3], the “T-1 Inhibition IC50” value was “inactive”. The EC50 in assay [1] (24 h) stood at 23100 nM.

On to `CC[C@@]1(O)C(=O)OCc2c1cc1n(c2=O)Cc2cc3cccc(N)c3nc2-1` [12-Amino-20(S)-CPT], for which the “T-1 Inhibition IC50” value at topoisomerase I [3] was “inactive”. Moreover, the EC50 in assay [1] (24 h) worked out at 22500 nM.

Take `CC[C@@]1(O)C(=O)OCc2c1cc1n(c2=O)Cc2cc3ccccc3nc2-1` [20(S)-CPT, 20(S)-camptothecin]: the “Relative Potency T-1 Inhibition” value at topoisomerase I [2] was 1. Moreover, in assay [1] (24 h), the EC50 was 1550 nM.

`CC[C@@]1(OC(=O)CN)C(=O)OCc2c1cc1n(c2=O)Cc2cc3ccccc3nc2-1` [20-Glycinate-20(S)-CPT]: the EC50 in assay [1] (setting [4]) came to 5100 nM.

The values above are taken from patent publication US5496830A (Johns Hopkins University, priority 1994, dated 1996).
